Values of other authors as cited in US10420763B2, “Sublingual apomorphine” (Sunovion Pharmaceuticals Inc., priority 2009, dated 2019).

System: Parkinson's patients

CN1CCc2cccc3c2[C@H]1Cc1ccc(O)c(O)c1-3 [apomorphine]
adverse effects of intranasal administration (intranasal administration (Koller et al. 2004)): transient nasal blockage, burning sensation and swollen nose and lips
common side effect of subcutaneous injection (subcutaneous injection (Prietz et al. 1998)): development of nodules, which often become infected
adverse effects of sublingual tablets (sublingual administration of apomorphine tablets, prolonged use (Deffond et al. 1993)): severe stomatitis on prolonged use with buccal mucosal ulceration in half the patients treated
